Drawing on PubChem BioAssay (NCI), this text covers GI50 and TGI for nine compounds.

Molecules are shown by their SMILES. Where “and” joins values, the source holds several entries; their conditions need not be identical. Equal values may be shown once.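 Five concentrations, 48 hours, 96-well plates. GI50: concentration for 50% inhibition of growth. TGI is the concentration that stops growth completely.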

Test systems include SK-MEL-28 melanoma; MDA-MB-435; HT29 colon; T-47D breast; OVCAR-3 ovarian; DU-145 prostate; PC-3 prostate; HOP-62 NSCLC; RPMI-8226 leukemia; HCC-2998 colon.
Common to all, as to assay: NCI-60 cell line screen, 48 h

For `COC(C)(C)[C@@H](O)[C@H](O)C[C@H](C)C1=C2CC[C@@H]3[C@@]4(C)CC[C@@H](OC(C)=O)C(C)(C)[C@@H]4C[C@@H](OC4OC(COC(C)=O)C(O)C(O)C4O)[C@@]3(C)[C@]2(C)CC1` (stereo partly specified), the GI50 in the assay with SK-MEL-28 melanoma is 11.7 µM; with MDA-MB-435, 12.3 µM; with HT29 colon, 5.08 µM; in the assay with T-47D breast, 12.6 µM; in the assay with OVCAR-3 ovarian, 7.37 µM; in the assay on DU-145 prostate it was 15 µM. Also, the GI50 in the assay with PC-3 prostate was 5.68 µM; with HOP-62 NSCLC, 14.3 µM; in the assay on RPMI-8226 leukemia, 4.15 µM; in the assay on HCC-2998 colon, 4 µM. In addition, the TGI in the assay with SK-MEL-28 melanoma was 24.2 µM; in the assay on MDA-MB-435 it was 25.6 µM; with HT29 colon, 16.9 µM; in the assay on T-47D breast, 25.6 µM; in the assay on OVCAR-3 ovarian it was 21.1 µM; in the assay on DU-145 prostate it was 28.5 µM. The TGI came out at 18.5 µM in the assay with PC-3 prostate, 27.4 µM in the assay on HOP-62 NSCLC, 22.1 µM in the assay with RPMI-8226 leukemia and 13.4 µM in the assay with HCC-2998 colon.
As to `C#C[C@]1(O)CC[C@H]2[C@@H]3CC=C4c5sc(Nc6cc(F)ccc6F)nc5CC[C@]4(C)[C@H]3CC[C@@]21C`, the GI50 in the assay on SK-MEL-28 melanoma is 1.09 µM; with MDA-MB-435 it was 2.07 µM; in the assay with HT29 colon, 2.24 µM; in the assay with T-47D breast it was 2.49 µM; with OVCAR-3 ovarian, 1.62 µM; in the assay with DU-145 prostate, 1.63 µM. Moreover, the GI50 with PC-3 prostate is 1.34 µM; in the assay on HOP-62 NSCLC, 1.77 µM; with RPMI-8226 leukemia it was 0.196 µM; with HCC-2998 colon it was 1.65 µM. The TGI was found to be 2.34 µM in the assay with SK-MEL-28 melanoma; 4.61 µM in the assay with MDA-MB-435; 8.5 µM with HT29 colon; 7.69 µM in the assay on T-47D breast; 3.16 µM in the assay with OVCAR-3 ovarian; 3.44 µM in the assay with DU-145 prostate. Also, the TGI in the assay on PC-3 prostate worked out at 10.3 µM; in the assay on HOP-62 NSCLC, 5.7 µM; with RPMI-8226 leukemia, 0.934 µM; with HCC-2998 colon it was 3.19 µM.
For the compound `CSC(=S)Nc1cc(C)cc(C)n1`, the TGI in the assay on SK-MEL-28 melanoma, with MDA-MB-435, in the assay with HT29 colon, in the assay with T-47D breast, with OVCAR-3 ovarian and in the assay on DU-145 prostate was greater than 31.6 µM in each case. Further, the TGI is greater than 31.6 µM in the assay on PC-3 prostate, greater than 100 µM in the assay on HOP-62 NSCLC, greater than 31.6 µM in the assay with RPMI-8226 leukemia and greater than 31.6 µM with HCC-2998 colon.
As for `O=C(NCCN1CCOCC1)OCc1nc2nc(Cl)nc(N3CCOCC3)c2[nH]1`, the GI50 is greater than 100 µM in the assay with SK-MEL-28 melanoma; 0.651 µM with MDA-MB-435; greater than 100 µM in the assay with HT29 colon; greater than 100 µM in the assay with T-47D breast; 1.15 µM in the assay on OVCAR-3 ovarian; 2.37 µM with DU-145 prostate. For the same compound, the GI50 in the assay on PC-3 prostate was 3.38 µM; with HOP-62 NSCLC, 4.93 µM; with RPMI-8226 leukemia, 0.701 µM; in the assay with HCC-2998 colon, 3.77 µM. The TGI with SK-MEL-28 melanoma is greater than 100 µM; with MDA-MB-435, 2.94 µM; in the assay on HT29 colon, greater than 100 µM; with T-47D breast, greater than 100 µM; in the assay on OVCAR-3 ovarian, 7.18 µM; in the assay with DU-145 prostate, 7.79 µM. For the same compound, the TGI in the assay on PC-3 prostate, in the assay on HOP-62 NSCLC, with RPMI-8226 leukemia and in the assay with HCC-2998 colon was greater than 100 µM in each case.
For the compound `CN1C(=O)c2ccc3ccccc3c2C1=O`, the TGI in the assay on SK-MEL-28 melanoma, with MDA-MB-435, in the assay with HT29 colon, with T-47D breast, in the assay with OVCAR-3 ovarian and with DU-145 prostate was greater than 100 µM in each case. Moreover, the TGI with PC-3 prostate, with HOP-62 NSCLC, with RPMI-8226 leukemia and in the assay on HCC-2998 colon was greater than 100 µM in each case.
`Cn1cnc(N)c(N=O)c1=O`: the TGI in the assay on SK-MEL-28 melanoma, in the assay on MDA-MB-435, with HT29 colon, with T-47D breast, with OVCAR-3 ovarian and in the assay with DU-145 prostate was greater than 10 µM each time. For the same compound, the TGI with PC-3 prostate, in the assay on HOP-62 NSCLC, in the assay with RPMI-8226 leukemia and in the assay with HCC-2998 colon was greater than 10 µM each time.
Consider `CCCCNNC(=O)c1ccc(Br)cc1`, for which the GI50 is 1.55 µM with SK-MEL-28 melanoma; 2.21 µM in the assay with MDA-MB-435; 1.92 µM with HT29 colon; 1.11 µM in the assay on T-47D breast; 5.26 µM with OVCAR-3 ovarian; 2.6 µM in the assay with DU-145 prostate. The GI50 with PC-3 prostate was 4.12 µM; in the assay on HOP-62 NSCLC it was 2.98 µM; with RPMI-8226 leukemia it was 0.956 µM; with HCC-2998 colon, 4.35 µM. Moreover, the TGI was greater than 35.3 µM in the assay on SK-MEL-28 melanoma; greater than 50 µM with MDA-MB-435; greater than 39 µM in the assay on HT29 colon; 7.49 µM with T-47D breast; greater than 50 µM in the assay with OVCAR-3 ovarian; greater than 50 µM with DU-145 prostate. In addition, the TGI in the assay with PC-3 prostate was greater than 50 µM; in the assay with HOP-62 NSCLC, greater than 34.2 µM; in the assay on RPMI-8226 leukemia, greater than 50 µM; in the assay with HCC-2998 colon it was 24 µM.
Take `CCC1(O)CC(OC2CC(N(C)C)C(OC3CC(O)C(OC4OC(C)C(=O)C=C4N)C(C)O3)C(C)O2)c2c(cc3c(c2O)C(=O)c2c(O)cccc2C3=O)C1C(=O)OC` (stereo unspecified): the TGI in the assay with SK-MEL-28 melanoma is 0.363 µM and 0.189 µM; in the assay with MDA-MB-435, 0.282 µM and 0.05 µM; with HT29 colon it was 0.431 µM and 1.24 µM; with T-47D breast, 0.657 µM and 1.79 µM; in the assay on OVCAR-3 ovarian, 1.18 µM and 0.624 µM; in the assay with DU-145 prostate, 1.7 µM and 1.71 µM. Also, the TGI was 0.333 µM and 1.1 µM with PC-3 prostate; 1.14 µM and 0.344 µM with HOP-62 NSCLC; 0.154 µM and 0.0597 µM with RPMI-8226 leukemia; 0.0824 µM and 0.0294 µM in the assay on HCC-2998 colon. Moreover, in the assay on T-47D breast, the GI50 is 0.0221 µM.
For `CCOc1ccc2c(-c3ccnc(Nc4cc(OC)cc(C(F)(F)F)c4)n3)cnn2n1`, the GI50 with SK-MEL-28 melanoma was greater than 23 µM; in the assay on MDA-MB-435, 0.903 µM; with HT29 colon, 8.4 µM; in the assay with T-47D breast it was 1.26 µM; in the assay with OVCAR-3 ovarian, 6.2 µM; in the assay with DU-145 prostate it was greater than 18.9 µM. In addition, the GI50 is greater than 15.5 µM in the assay with PC-3 prostate, greater than 25 µM in the assay on HOP-62 NSCLC, greater than 18.3 µM in the assay with RPMI-8226 leukemia and greater than 25 µM in the assay on HCC-2998 colon. The TGI in the assay on SK-MEL-28 melanoma is greater than 25 µM; with MDA-MB-435, greater than 10.5 µM; in the assay on HT29 colon, greater than 25 µM; in the assay on T-47D breast it was greater than 25 µM; in the assay on OVCAR-3 ovarian, greater than 25 µM; in the assay with DU-145 prostate it was greater than 25 µM. The TGI in the assay on PC-3 prostate, in the assay on HOP-62 NSCLC, in the assay on RPMI-8226 leukemia and with HCC-2998 colon was greater than 25 µM throughout.
